Tested on: MV-4-11 cells
Assay: Gene expression microarray analysis (Affymetrix PrimeView) and GSEA
Format: cell-based, human
Parameters: RFU PODN (11730768_x_at) / Fold change /veh PODN (11730768_x_at) / RFU LINC00158 (11744669_a_at) / Fold change /veh LINC00158 (11744669_a_at) / RFU DUSP10 (11751237_a_at) / Fold change /veh DUSP10 (11751237_a_at) / RFU ID3 (11757404_x_at) / Fold change /veh ID3 (11757404_x_at) / RFU PLEKHG5 (11737974_s_at) / Fold change /veh PLEKHG5 (11737974_s_at) / RFU LRRC4B (11730491_at) / Fold change /veh LRRC4B (11730491_at) / RFU GIMAP4 (11747438_a_at) / Fold change /veh GIMAP4 (11747438_a_at) / RFU KRT8 (11758183_x_at) / Fold change /veh KRT8 (11758183_x_at) / RFU CNN1 (11734310_a_at) / Fold change /veh CNN1 (11734310_a_at) / RFU VPS37D (11726825_at) / Fold change /veh VPS37D (11726825_at) / RFU C10orf10 (11716522_x_at) / Fold change /veh C10orf10 (11716522_x_at) / RFU KIR2DL2 /// KIR2DL4 /// KIR2DL5A /// KIR2DL5B /// KIR2DS1 /// KIR2DS2 /// KIR2DS3 /// KIR2DS4 /// KIR3DL3 /// KIR3DL3 /// KIR3DS1 (11738374_at) / Fold change /veh KIR2DL2 /// KIR2DL4 /// KIR2DL5A /// KIR2DL5B /// KIR2DS1 /// KIR2DS2 /// KIR2DS3 /// KIR2DS4 /// KIR3DL3 /// KIR3DL3 /// KIR3DS1 (11738374_at) / RFU C1QL1 (11718748_at) / Fold change /veh C1QL1 (11718748_at) / RFU TMPRSS4 (11747572_a_at) / Fold change /veh TMPRSS4 (11747572_a_at) / RFU HAMP (11756126_x_at) / Fold change /veh HAMP (11756126_x_at) / RFU RNFT2 (11725882_a_at) / Fold change /veh RNFT2 (11725882_a_at) / RFU NR4A2 (11747474_a_at) / Fold change /veh NR4A2 (11747474_a_at) / RFU ABCC12 (11746883_a_at) / Fold change /veh ABCC12 (11746883_a_at) / RFU TMEM136 (11760407_x_at) / Fold change /veh TMEM136 (11760407_x_at) / RFU CLDN22 /// WWC2 (11732394_at) / Fold change /veh CLDN22 /// WWC2 (11732394_at) / RFU HLA-DPB1 (11760878_x_at) / Fold change /veh HLA-DPB1 (11760878_x_at) / RFU SPINT1 (11716480_a_at) / Fold change /veh SPINT1 (11716480_a_at) / RFU GAP43 (11754022_s_at) / Fold change /veh GAP43 (11754022_s_at) / RFU A4GNT (11735810_at) / Fold change /veh A4GNT (11735810_at) / RFU PRB3 (11715151_x_at) / Fold change /veh PRB3 (11715151_x_at) / RFU TUBB4B (11761932_at) / Fold change /veh TUBB4B (11761932_at) / RFU CAPN14 (11732068_a_at) / Fold change /veh CAPN14 (11732068_a_at) / RFU TMCC2 (11721928_a_at) / Fold change /veh TMCC2 (11721928_a_at) / RFU IRGQ (11745062_a_at) / Fold change /veh IRGQ (11745062_a_at) / RFU FAM174B (11720279_a_at) / Fold change /veh FAM174B (11720279_a_at) / RFU TMPRSS4 (11748680_a_at) / Fold change /veh TMPRSS4 (11748680_a_at) / RFU FAM212B (11763350_a_at) / Fold change /veh FAM212B (11763350_a_at) / RFU PLEKHG5 (11743358_a_at) / Fold change /veh PLEKHG5 (11743358_a_at) / RFU ZSCAN30 (11745921_a_at) / Fold change /veh ZSCAN30 (11745921_a_at) / RFU CMKLR1 (11741424_a_at) / Fold change /veh CMKLR1 (11741424_a_at) / RFU LOC101060620 /// MAPK8IP1 (11723275_at) / Fold change /veh LOC101060620 /// MAPK8IP1 (11723275_at) / RFU SPTSSB (11747773_x_at) / Fold change /veh SPTSSB (11747773_x_at) / RFU PRSS12 (11739890_at) / Fold change /veh PRSS12 (11739890_at) / RFU BIN1 (11741810_x_at) / Fold change /veh BIN1 (11741810_x_at) / RFU WNT11 (11732464_a_at) / Fold change /veh WNT11 (11732464_a_at) / RFU C10orf10 (11716521_a_at) / Fold change /veh C10orf10 (11716521_a_at) / RFU C5orf56 (11738089_at) / Fold change /veh C5orf56 (11738089_at) / RFU CYB561 (11721691_x_at) / Fold change /veh CYB561 (11721691_x_at) / RFU ANKRD19P (11752326_a_at) / Fold change /veh ANKRD19P (11752326_a_at) / RFU OR2T12 /// OR2T33 /// OR2T8 (11738714_s_at) / Fold change /veh OR2T12 /// OR2T33 /// OR2T8 (11738714_s_at) / RFU VCAN (11748164_a_at) / Fold change /veh VCAN (11748164_a_at) / RFU JSRP1 (11732532_at) / Fold change /veh JSRP1 (11732532_at) / RFU KRTAP10-11 (11738290_x_at) / Fold change /veh KRTAP10-11 (11738290_x_at) / RFU MYO3A (11730013_a_at) / Fold change /veh MYO3A (11730013_a_at) / RFU EBF3 (11725865_a_at) / Fold change /veh EBF3 (11725865_a_at) / RFU CAMK2N1 (11719241_x_at) / Fold change /veh CAMK2N1 (11719241_x_at) / RFU C5orf56 (11738088_a_at) / Fold change /veh C5orf56 (11738088_a_at) / RFU OLFML3 (11715873_a_at) / Fold change /veh OLFML3 (11715873_a_at) / RFU LOC100653217 /// NTM (11731650_a_at) / Fold change /veh LOC100653217 /// NTM (11731650_a_at) / RFU MAPK11 (11762145_a_at) / Fold change /veh MAPK11 (11762145_a_at) / RFU FIZ1 (11724087_x_at) / Fold change /veh FIZ1 (11724087_x_at) / RFU OASL (11726364_x_at) / Fold change /veh OASL (11726364_x_at) / RFU SOX15 (11748057_x_at) / Fold change /veh SOX15 (11748057_x_at) / RFU CD79A (11719716_a_at) / Fold change /veh CD79A (11719716_a_at) / RFU HIST1H1D (11736915_at) / Fold change /veh HIST1H1D (11736915_at) / RFU CASKIN2 (11723855_a_at) / Fold change /veh CASKIN2 (11723855_a_at) / RFU LOC730098 (11760151_x_at) / Fold change /veh LOC730098 (11760151_x_at) / RFU OR4N2 (11742367_at) / Fold change /veh OR4N2 (11742367_at) / RFU PRRT2 (11749266_a_at) / Fold change /veh PRRT2 (11749266_a_at) / RFU SNX32 (11753110_a_at) / Fold change /veh SNX32 (11753110_a_at) / RFU CDHR5 (11726645_a_at) / Fold change /veh CDHR5 (11726645_a_at) / RFU RCAN1 (11760418_a_at) / Fold change /veh RCAN1 (11760418_a_at) / RFU FAM167A (11723789_a_at) / Fold change /veh FAM167A (11723789_a_at) / RFU FAM26E (11764081_at) / Fold change /veh FAM26E (11764081_at) / RFU ISYNA1 (11749810_s_at) / Fold change /veh ISYNA1 (11749810_s_at) / RFU ACY1 (11761880_at) / Fold change /veh ACY1 (11761880_at) / RFU 11764098_at / Fold change /veh 11764098_at / RFU SAMD14 (11745864_x_at) / Fold change /veh SAMD14 (11745864_x_at) / RFU NPB (11741838_a_at) / Fold change /veh NPB (11741838_a_at) / RFU TMPRSS6 (11731388_a_at) / Fold change /veh TMPRSS6 (11731388_a_at) / RFU KRTAP10-2 (11738614_at) / Fold change /veh KRTAP10-2 (11738614_at) / RFU ARHGAP8 /// PRR5-ARHGAP8 (11727945_x_at) / Fold change /veh ARHGAP8 /// PRR5-ARHGAP8 (11727945_x_at) / RFU KRTAP5-7 /// NADSYN1 (11734609_at) / Fold change /veh KRTAP5-7 /// NADSYN1 (11734609_at) / RFU RASL12 (11751679_a_at) / Fold change /veh RASL12 (11751679_a_at) / RFU CDKN2B (11736163_a_at) / Fold change /veh CDKN2B (11736163_a_at) / RFU PRF1 (11729649_at) / Fold change /veh PRF1 (11729649_at) / RFU, ZNF638 /// ZNF638-IT1 / Fold change vs veh, ZNF638 /// ZNF638-IT1 / RFU, PANK3 / Fold change vs veh, PANK3 / RFU, SH3YL1 / Fold change vs veh, SH3YL1 / RFU, ZEB2 / Fold change vs veh, ZEB2 / RFU, NRIP1 / Fold change vs veh, NRIP1 / RFU, PTTG1IP / Fold change vs veh, PTTG1IP / RFU, CAPN2 / Fold change vs veh, CAPN2 / RFU, MED14 / Fold change vs veh, MED14 / RFU, SNORA58 / Fold change vs veh, SNORA58 / RFU, C1orf63 / Fold change vs veh, C1orf63 / RFU, LRRFIP1 / Fold change vs veh, LRRFIP1 / RFU, NDUFAF7 / Fold change vs veh, NDUFAF7 / RFU, SLC12A2 / Fold change vs veh, SLC12A2 / RFU, IBTK / Fold change vs veh, IBTK / RFU, ESF1 / Fold change vs veh, ESF1 / Fold change vs veh, TMEM50B / RFU, TAOK1 / Fold change vs veh, TAOK1 / RFU, ACBD3 / Fold change vs veh, ACBD3 / RFU, TMA16 / Fold change vs veh, TMA16 / RFU, RWDD3 / Fold change vs veh, RWDD3 / RFU, BCAT1 / Fold change vs veh, BCAT1 / RFU, EDEM3 / Fold change vs veh, EDEM3 / RFU, TMEM33 / Fold change vs veh, TMEM33 / RFU, WDR75 / Fold change vs veh, WDR75 / RFU, AHCTF1 / Fold change vs veh, AHCTF1 / RFU, TFRC / Fold change vs veh, TFRC / RFU, ZDHHC17 / Fold change vs veh, ZDHHC17 / RFU, NOM1 / Fold change vs veh, NOM1 / RFU, ARL8B / Fold change vs veh, ARL8B / RFU, ZBTB11 / Fold change vs veh, ZBTB11 / RFU, TAMM41 / Fold change vs veh, TAMM41 / RFU, KIAA1704 /// LOC100996395 / Fold change vs veh, KIAA1704 /// LOC100996395 / RFU, ING1 / Fold change vs veh, ING1 / RFU, TRMT61B / Fold change vs veh, TRMT61B / RFU, FUBP3 / Fold change vs veh, FUBP3 / RFU, TP53 / Fold change vs veh, TP53 / RFU, TNKS2 / Fold change vs veh, TNKS2 / RFU, ZFP14 / Fold change vs veh, ZFP14 / RFU, ACTR2 / Fold change vs veh, ACTR2 / RFU, PPP3R1 / Fold change vs veh, PPP3R1 / RFU, PIK3R1 / Fold change vs veh, PIK3R1 / RFU, HNRNPA1 / Fold change vs veh, HNRNPA1 / RFU, RNF170 / Fold change vs veh, RNF170 / RFU, ZNF28 / Fold change vs veh, ZNF28 / RFU, RNGTT / Fold change vs veh, RNGTT / RFU, OGT / Fold change vs veh, OGT / RFU, BRD1 / Fold change vs veh, BRD1 / RFU, MARS / Fold change vs veh, MARS / RFU, ZNF655 / Fold change vs veh, ZNF655 / RFU, FAHD1 / Fold change vs veh, FAHD1 / RFU, BDP1 / Fold change vs veh, BDP1 / RFU, LRRCC1 / Fold change vs veh, LRRCC1 / RFU, ARID1A / Fold change vs veh, ARID1A / RFU, ZNF146 / Fold change vs veh, ZNF146 / RFU, ZNF330 / Fold change vs veh, ZNF330 / RFU, GPN3 / Fold change vs veh, GPN3 / RFU, C9orf123 / Fold change vs veh, C9orf123 / RFU, N4BP2L2 / Fold change vs veh, N4BP2L2 / RFU, ARFIP1 / Fold change vs veh, ARFIP1 / RFU, FAM179B / Fold change vs veh, FAM179B / RFU, BCL10 / Fold change vs veh, BCL10 / RFU, UHRF1BP1L / Fold change vs veh, UHRF1BP1L / RFU, BET1 / Fold change vs veh, BET1 / RFU, CNOT2 / Fold change vs veh, CNOT2 / RFU, ZNF268 / Fold change vs veh, ZNF268 / Fold change vs veh, ZNF507 / RFU, DGCR2 / Fold change vs veh, DGCR2 / RFU, WDSUB1 / Fold change vs veh, WDSUB1 / Fold change vs veh, HSP90B1 /// MIR3652 / RFU, ADSS / Fold change vs veh, ADSS / RFU, GK / Fold change vs veh, GK / RFU, ZNF148 / Fold change vs veh, ZNF148 / RFU, TAF9 / Fold change vs veh, TAF9 / RFU, SLC1A5 / Fold change vs veh, SLC1A5 / RFU, SLMO2 / Fold change vs veh, SLMO2 / RFU, ABCC4 / Fold change vs veh, ABCC4 / RFU, LOC101060439 /// RAP1B / Fold change vs veh, LOC101060439 /// RAP1B / RFU, RFX7 / Fold change vs veh, RFX7 / RFU, GTPBP10 / Fold change vs veh, GTPBP10 / RFU, CNEP1R1 / Fold change vs veh, CNEP1R1 / RFU, BIVM-ERCC5 /// ERCC5 / Fold change vs veh, BIVM-ERCC5 /// ERCC5 / RFU, ILF3 / Fold change vs veh, ILF3 / RFU 11762660_at / Fold change /veh 11762660_at / RFU VCAN (11757783_s_at) / Fold change /veh VCAN (11757783_s_at) / RFU DDX43 (11728927_at) / Fold change /veh DDX43 (11728927_at) / RFU KRT8 (11758188_x_at) / Fold change /veh KRT8 (11758188_x_at) / RFU NKD1 (11759106_at) / Fold change /veh NKD1 (11759106_at) / RFU SRD5A1 (11742802_a_at) / Fold change /veh SRD5A1 (11742802_a_at) / RFU TPSAB1 /// TPSB2 (11721975_s_at) / Fold change /veh TPSAB1 /// TPSB2 (11721975_s_at) / RFU GSTM3 (11746129_a_at) / Fold change /veh GSTM3 (11746129_a_at) / RFU IL23R (11737362_x_at) / Fold change /veh IL23R (11737362_x_at) / RFU TMEM51 (11727254_a_at) / Fold change /veh TMEM51 (11727254_a_at) / RFU PIWIL2 (11732686_x_at) / Fold change /veh PIWIL2 (11732686_x_at) / RFU ORM1 (11744905_x_at) / Fold change /veh ORM1 (11744905_x_at) / RFU CCDC152 (11743942_at) / Fold change /veh CCDC152 (11743942_at) / RFU ECM1 (11717891_a_at) / Fold change /veh ECM1 (11717891_a_at) / RFU IL23R (11748794_a_at) / Fold change /veh IL23R (11748794_a_at) / RFU TNFAIP8L3 (11732012_x_at) / Fold change /veh TNFAIP8L3 (11732012_x_at) / RFU MBOAT4 (11741988_at) / Fold change /veh MBOAT4 (11741988_at) / RFU 11764193_at / Fold change /veh 11764193_at / RFU TMEM53 (11763286_at) / Fold change /veh TMEM53 (11763286_at) / RFU MAGEB2 (11727129_at) / Fold change /veh MAGEB2 (11727129_at) / RFU TMEM200A (11744735_a_at) / Fold change /veh TMEM200A (11744735_a_at) / RFU CCDC152 (11751479_a_at) / Fold change /veh CCDC152 (11751479_a_at) / RFU FAM211A (11726209_a_at) / Fold change /veh FAM211A (11726209_a_at) / RFU RGS16 (11746705_a_at) / Fold change /veh RGS16 (11746705_a_at) / RFU VCAN (11755009_s_at) / Fold change /veh VCAN (11755009_s_at) / RFU RHOB (11743442_s_at) / Fold change /veh RHOB (11743442_s_at) / RFU RGS16 (11720943_a_at) / Fold change /veh RGS16 (11720943_a_at) / RFU RGS16 (11720944_at) / Fold change /veh RGS16 (11720944_at) / RFU, VPS4B / Fold change vs veh, VPS4B / RFU, CREB1 / Fold change vs veh, CREB1 / RFU, DNAJC13 / Fold change vs veh, DNAJC13 / RFU, GNAQ / Fold change vs veh, GNAQ / RFU, CDK5R1 / Fold change vs veh, CDK5R1 / RFU, ZRANB3 / Fold change vs veh, ZRANB3 / RFU, CUL4A / Fold change vs veh, CUL4A / RFU, CCNY / Fold change vs veh, CCNY / RFU, UFL1 / Fold change vs veh, UFL1 / RFU, COG3 / Fold change vs veh, COG3 / RFU, DIAPH2 / Fold change vs veh, DIAPH2 / RFU, SKA2 / Fold change vs veh, SKA2 / RFU, AFF3 / Fold change vs veh, AFF3 / RFU, LMF1 / Fold change vs veh, LMF1 / RFU, IPO11 / Fold change vs veh, IPO11 / RFU, DFFB / Fold change vs veh, DFFB / RFU, FOXP1 / Fold change vs veh, FOXP1 / RFU, CARD8 / Fold change vs veh, CARD8 / RFU, STRN3 / Fold change vs veh, STRN3 / RFU, ADK / Fold change vs veh, ADK / RFU, RASSF2 / Fold change vs veh, RASSF2 / RFU, WIPF1 / Fold change vs veh, WIPF1 / RFU, LARP1B / Fold change vs veh, LARP1B / RFU, RASA1 / Fold change vs veh, RASA1 / RFU, RB1 / Fold change vs veh, RB1 / RFU, PPFIA1 / Fold change vs veh, PPFIA1 / RFU, MAT2A / Fold change vs veh, MAT2A / RFU, CCT5 / Fold change vs veh, CCT5 / RFU, WDR92 / Fold change vs veh, WDR92 / RFU, CUX1 / Fold change vs veh, CUX1 / RFU, TTC7A / Fold change vs veh, TTC7A / RFU, TMEM135 / Fold change vs veh, TMEM135 / RFU, DEPTOR / Fold change vs veh, DEPTOR / RFU, CPM / Fold change vs veh, CPM / RFU, DNAJB6 / Fold change vs veh, DNAJB6 / RFU, CACNA2D3 / Fold change vs veh, CACNA2D3 / RFU, DTX4 / Fold change vs veh, DTX4 / RFU, TFCP2 / Fold change vs veh, TFCP2 / RFU, GMCL1 /// GMCL1P1 / Fold change vs veh, GMCL1 /// GMCL1P1 / RFU, AEBP2 / Fold change vs veh, AEBP2 / RFU, SNHG1 /// SNORD22 /// SNORD25 /// SNORD26 /// SNORD27 /// SNORD28 /// SNORD29 /// SNORD31 / Fold change vs veh, SNHG1 /// SNORD22 /// SNORD25 /// SNORD26 /// SNORD27 /// SNORD28 /// SNORD29 /// SNORD31 / Fold change (Aza/veh), C12orf56 (ProbeSet 11735607_a_at) / Fold change (ACY-1035/veh), C12orf56 (ProbeSet 11735607_a_at) / Fold change (Aza/veh), FGFR1OP (ProbeSet 11751329_s_at) / Fold change (ACY-1035/veh), FGFR1OP (ProbeSet 11751329_s_at) / Fold change (Aza/veh), VPS36 (ProbeSet 11739960_a_at) / Fold change (ACY-1035/veh), VPS36 (ProbeSet 11739960_a_at) / RFU SYPL1 (11715823_x_at) / Fold change /veh SYPL1 (11715823_x_at) / RFU IGFBP7 (11715501_s_at) / Fold change /veh IGFBP7 (11715501_s_at) / RFU REEP3 (11722064_at) / Fold change /veh REEP3 (11722064_at) / RFU IGLL1 (11728026_x_at) / Fold change /veh IGLL1 (11728026_x_at): dose or concentration left out as unconfirmed
Conditions: ProbeSet 11764057_s_at; LIST B

SMILES: Nc1ccc(-c2cccs2)cc1NC(=O)c1ccc2c(c1)cc(C1CC1)n2CCN1CCOCC1 [ACY-1035]
- RFU, C1orf63: 108.16 RFU

Reference: article PMC5218480 (PLoS ONE, 2017)
